Values quoted from earlier work in patent US10576045B2 (priority 2012, dated 2020).

Assays:
[1] = 60 mg/day
[2] = obese patients with BED; 8 mg/day of reboxetine for 12 days
[3] = reboxetine 4 mg/day coadministered with olanzapine
anticholinergic binding = settings: different animal models

Compound | difference between treatment and placebo groups ([1]; end of the study, week 52) | weight loss compared to placebo ([1]; following 28 weeks of treatment) | monoamine oxidase (MAO) inhibitory activity (monoamine oxidase (MAO)) | binge eating behavior [2] | weight-gain associated with olanzapine administration [3] | anticholinergic binding activity (anticholinergic binding) | serotonin reuptake inhibitory activity (serotonin reuptake) | dopamine reuptake inhibitory activity (dopamine reuptake)
CNCCC(Oc1ccc(C(F)(F)F)cc1)c1ccccc1 (racemic) [fluoxetine, (+−)-N-methyl-3-(p-trifluoromethylphenoxy)-3-phenylpropyl-amine] | no difference | statistically significant weight loss |  |  |  |  |  | 
CCOc1ccccc1O[C@H](c1ccccc1)[C@H]1CNCCO1 (relative stereo) [reboxetine, (R*,R*)-2-[(2-ethoxyphenoxy)-phenyl-methyl]morpholine] |  |  | substantially devoid | reduced binge eating behavior | reduced the weight-gain | no anticholinergic binding activity | only marginal | no
